Assay results reported in patent US20210347727A1 (BLADE THERAPEUTICS, INC., priority 2017, published 2021).

What was measured:
Human Calpain 2/NS1 = biological target: T1, Human Calpain 2/NS1 (Homo sapiens, UniProt P17655); assay: Biochemical inhibition of calpain 2, continuous fluorescence (FRET substrate) assay; conditions: mean; read-out: Human Calpain 2/NS1 1C50 [sic] (nM)_MEAN
T1 sequence (P17655 1-700): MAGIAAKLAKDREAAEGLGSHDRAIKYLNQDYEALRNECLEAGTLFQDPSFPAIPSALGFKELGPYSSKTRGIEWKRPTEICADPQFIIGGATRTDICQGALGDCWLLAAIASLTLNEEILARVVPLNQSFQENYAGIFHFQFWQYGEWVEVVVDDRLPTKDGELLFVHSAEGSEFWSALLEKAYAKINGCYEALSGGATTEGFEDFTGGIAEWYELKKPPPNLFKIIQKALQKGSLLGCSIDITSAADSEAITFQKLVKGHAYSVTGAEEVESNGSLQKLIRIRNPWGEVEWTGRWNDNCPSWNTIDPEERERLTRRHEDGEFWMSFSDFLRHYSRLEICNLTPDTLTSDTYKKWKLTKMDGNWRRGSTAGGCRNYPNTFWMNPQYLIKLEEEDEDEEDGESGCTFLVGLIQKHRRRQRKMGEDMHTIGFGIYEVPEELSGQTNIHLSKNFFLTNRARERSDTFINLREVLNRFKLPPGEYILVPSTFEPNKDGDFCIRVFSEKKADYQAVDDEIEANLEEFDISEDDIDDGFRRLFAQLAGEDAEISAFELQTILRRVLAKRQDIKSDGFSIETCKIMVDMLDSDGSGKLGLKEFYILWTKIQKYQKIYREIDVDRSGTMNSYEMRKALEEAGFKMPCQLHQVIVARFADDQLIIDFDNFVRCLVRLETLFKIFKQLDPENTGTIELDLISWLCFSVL
T1 sequence (P04632 1-268 partner): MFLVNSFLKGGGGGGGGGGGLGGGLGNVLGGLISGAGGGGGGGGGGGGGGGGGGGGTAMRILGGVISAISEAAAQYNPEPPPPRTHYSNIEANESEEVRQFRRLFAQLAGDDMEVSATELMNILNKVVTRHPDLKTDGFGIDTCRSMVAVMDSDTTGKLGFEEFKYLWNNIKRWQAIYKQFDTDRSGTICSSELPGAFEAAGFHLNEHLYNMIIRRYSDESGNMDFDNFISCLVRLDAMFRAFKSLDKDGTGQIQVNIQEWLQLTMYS
Protocol: (§1) Calpain 1, 2, and 9 activity and inhibition thereof are assessed by means of a continuous fluorescence assay. The SensoLyte 520 Calpain substrate (Anaspec Inc) is optimized for detecting calpain activity. This substrate contains a novel internally quenched 5-FAM/QXL™ 520 FRET pair. Calpains 1, 2, and 9 cleave the FRET substrate into two separate fragments resulting in an increase of 5-FAM fluorescence that is proportional to calpain activity.
(§2) Assays are typically setup in black 384-well plates using automated liquid handling as follows. Calpain assay base buffer typically contains 50 mM Tris, pH 7.5, 100 mM NaCl and 1 mM DTT. Inhibitors are serially diluted in DMSO and used to setup 2× mixtures with calpains in the aforementioned buffer. After incubation at ambient temperature (25 C), the reaction is initiated by adding a 2× mix of the fluorescent peptide substrate and CaCl2 (required for in-situ calpain activation) in the same buffer. Reaction progress curve data are typically collected for 10 min using excitation/emission wavelengths of 490 nm/520 nm on SpectraMax i3x or the FLIPR-Tetra plate readers (Molecular Devices Inc). Reaction rates were calculated from progress curve slopes typically over 1-5 min. Dose response curves (rate vs. log inhibitor concentration) were typically fit to a 4-parameter logistic function to extract IC50 values.

Human Calpain 9/NS1 = biological target: T2, Human Calpain 9/NS1 (Homo sapiens, UniProt O14815); assay: Biochemical inhibition of calpain 9, continuous fluorescence (FRET substrate) assay; conditions: mean; read-out: Human Calpain 9/NS1 IC50 (nM)_MEAN
T2 sequence (O14815 1-690): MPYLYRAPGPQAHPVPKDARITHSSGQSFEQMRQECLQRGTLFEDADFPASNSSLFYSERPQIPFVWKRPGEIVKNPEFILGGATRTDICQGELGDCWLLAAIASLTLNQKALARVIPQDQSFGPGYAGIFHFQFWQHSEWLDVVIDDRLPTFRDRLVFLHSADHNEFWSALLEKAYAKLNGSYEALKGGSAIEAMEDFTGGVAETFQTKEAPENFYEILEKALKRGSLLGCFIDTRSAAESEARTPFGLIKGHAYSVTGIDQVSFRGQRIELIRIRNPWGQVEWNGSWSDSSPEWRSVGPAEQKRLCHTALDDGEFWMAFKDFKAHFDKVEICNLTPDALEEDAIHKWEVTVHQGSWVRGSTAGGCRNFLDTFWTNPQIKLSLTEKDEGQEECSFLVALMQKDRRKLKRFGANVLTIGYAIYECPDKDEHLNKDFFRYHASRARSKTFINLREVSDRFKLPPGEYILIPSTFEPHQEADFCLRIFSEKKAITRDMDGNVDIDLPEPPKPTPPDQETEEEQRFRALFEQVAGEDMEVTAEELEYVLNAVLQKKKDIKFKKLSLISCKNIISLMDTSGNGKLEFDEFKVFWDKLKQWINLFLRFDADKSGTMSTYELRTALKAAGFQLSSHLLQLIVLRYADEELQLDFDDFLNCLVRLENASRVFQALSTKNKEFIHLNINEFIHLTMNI
T2 sequence (P04632 1-268 partner): T1 sequence (P04632 1-268 partner)
Protocol: as §1, §2

Human Calpain 1/NS1 = biological target: T3, Human Calpain 1/NS1 (Homo sapiens, UniProt P07384); assay: Biochemical inhibition of calpain 1, continuous fluorescence (FRET substrate) assay; conditions: mean; read-out: Human Calpain 1/NS1 IC50 (nM)_MEAN
T3 sequence (P07384 1-714): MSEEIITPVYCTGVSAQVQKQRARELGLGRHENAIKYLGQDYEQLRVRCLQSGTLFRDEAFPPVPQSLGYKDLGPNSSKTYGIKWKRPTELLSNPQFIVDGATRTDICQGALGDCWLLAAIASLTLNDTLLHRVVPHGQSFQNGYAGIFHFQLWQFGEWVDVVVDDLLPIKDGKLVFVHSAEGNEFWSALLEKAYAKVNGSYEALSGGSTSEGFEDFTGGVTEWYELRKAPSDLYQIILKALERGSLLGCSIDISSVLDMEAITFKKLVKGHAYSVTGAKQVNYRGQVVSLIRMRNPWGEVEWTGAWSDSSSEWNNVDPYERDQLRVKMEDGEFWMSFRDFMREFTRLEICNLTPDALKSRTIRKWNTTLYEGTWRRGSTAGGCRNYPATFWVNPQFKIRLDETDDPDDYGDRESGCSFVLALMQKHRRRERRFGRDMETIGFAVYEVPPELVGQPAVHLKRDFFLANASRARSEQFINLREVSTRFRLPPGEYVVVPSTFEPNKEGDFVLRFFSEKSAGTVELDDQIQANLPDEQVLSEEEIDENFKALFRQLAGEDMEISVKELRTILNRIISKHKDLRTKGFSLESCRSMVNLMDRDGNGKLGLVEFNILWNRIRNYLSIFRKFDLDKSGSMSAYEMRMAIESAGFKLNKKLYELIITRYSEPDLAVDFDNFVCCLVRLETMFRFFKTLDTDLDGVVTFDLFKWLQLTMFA
T3 sequence (P04632 1-268 partner): T1 sequence (P04632 1-268 partner)
Protocol: as §1, §2

[1] = tested on: calpain activity in SH-SY5Y cells (Spectrin); assay: SH-SY5Y Spectrin cellular calpain inhibition; type: cell-based
[2] = tested on: calpain activity in SH-SY5Y cells; assay: SH-SY5Y cellular calpain activity, Suc-LLVY-AMC fluorescence assay; type: cell-based; conditions: Suc-LLVY-AMC substrate
Protocol: Calpain activity in SH-SY5Y cells and inhibition thereof were assessed by means of a homogeneous, fluorescence assay that uses the cell-permeable and pro-fluorescent calpain substrate Suc-LLVY-AMC (Sigma-Aldrich Inc). Upon intracellular calpain cleavage of Suc-LLVY-AMC, fluorescent amino-methyl-coumarin (AMC) is released into the media resulting in a continuous increase in fluorescence signal that is proportional to intra-cellular calpain activity.
Assays were typically setup by seeding SH-SY5Y cells in black 384-well plates at 40 k/per well in RPMI-1640 containing 1% serum followed by 37 C overnight incubation. Next morning, cells were pre-incubated for 30 min with serially diluted compounds followed by addition of 100 uM of Suc-LLVY-AMC substrate. The continuous increase in AMC fluorescence is monitored using a FLIPR, Tetra plate reader (Molecular Devices Inc) and slopes measured to report calpain activity. Dose response curves (slopes vs. log inhibitor concentration) were typically fit to a 4-parameter logistic function to extract IC50 values.

Row | SMILES | IC50 (Human Calpain 2/NS1) [nM] | IC50 (Human Calpain 9/NS1) [nM] | IC50 (Human Calpain 1/NS1) [nM] | IC50 [1] [µM] | IC50 [2] [µM]
1 | NC(=O)C(=O)[C@H](Cc1ccccc1)NC(=O)c1c(C(F)(F)F)ccc(Cl)c1F [Compound 32, (S)—N-(4-AMINO-3,4-DIOXO-1-PHENYLBUTAN-2-YL)-3-CHLORO-2-FLUORO-6-(TRIFLUOROMETHYL)BENZAMIDE] | < 3000 | < 3000 | < 3000 | < 10 | < 10
2 | NC(=O)C(=O)[C@H](Cc1ccccc1)NC(=O)c1c(Cl)cccc1Cl [Compound 1, (S)—N-(4-AMINO-3,4-DIOXO-1-PHENYLBUTAN-2-YL)-2,6-DICHLOROBENZAMIDE] | < 3000 | < 3000 | < 3000 | 10 to 25 | > 25
3 | Cn1c2ccccc2c2cccc(C(=O)NC(Cc3ccccc3)C(=O)C(N)=O)c21 (stereo not drawn) [Compound 12] | < 3000 | < 3000 | < 3000 | > 25 | < 10
4 | NC(=O)C(=O)[C@H](Cc1ccccc1)NC(=O)c1c(Cl)cccc1Br [Compound 14, (S)—N-(4-AMINO-3,4-DIOXO-1-PHENYLBUTAN-2-YL)-2-BROMO-6-CHLOROBENZAMIDE] | < 3000 | < 3000 | < 3000 | 10 to 25 | < 10
5 | O=CC(Cc1ccccc1)NC(=O)c1c(Cl)cccc1Cl (stereo not drawn) [Compound 45, 2,6-DICHLORO-N-(1-OXO-3-PHENYLPROPAN-2-YL)BENZAMIDE] | < 3000 | < 3000 | < 3000 | 10 to 25 | < 10
6 | NC(=O)C(=O)[C@H](Cc1ccccc1)NC(=O)c1c(F)cccc1F [Compound 15, (S)—N-(4-AMINO-3,4-DIOXO-1-PHENYLBUTAN-2-YL)-2,6-DIFLUOROBENZAMIDE] | < 3000 | < 3000 | < 3000 | 10 to 25 | 10 to 25
7 | NC(=O)C(=O)[C@H](Cc1ccccc1)NC(=O)c1cc(Cl)ccc1Cl [Compound 22, (S)—N-(4-AMINO-3,4-DIOXO-1-PHENYLBUTAN-2-YL)-2,5-DICHLOROBENZAMIDE] | < 3000 | < 3000 | < 3000 | 10 to 25 | < 10
8 | NC(=O)C(=O)[C@H](Cc1ccccc1)NC(=O)c1cc(Br)ccc1Cl [Compound 34, (S)—N-(4-AMINO-3,4-DIOXO-1-PHENYLBUTAN-2-YL)-5-BROMO-2-CHLOROBENZAMIDE] | < 3000 | < 3000 | < 3000 | < 10 | < 10
9 | COc1ccc(F)c(C(=O)NC(C=O)Cc2ccccc2)c1Cl (stereo not drawn) [Compound 43, 2-CHLORO-6-FLUORO-3-METHOXY-N-(1-OXO-3-PHENYLPROPAN-2-YL)BENZAMIDE] | < 3000 | < 3000 | < 3000 | 10 to 25 | < 10
10 | O=CC(Cc1ccccc1)NC(=O)c1c(F)cccc1F (stereo not drawn) [Compound 40, 2,6-DIFLUDRO-N-(1-OXO-3-PHENYLPROPAN-2-YL)BENZAMIDE] | < 3000 | < 3000 | < 3000 | 10 to 25 | > 25
11 | COc1ccc(F)c(C(=O)N[C@@H](Cc2ccccc2)C(=O)C(N)=O)c1Cl [Compound 29, (S)—N-(4-AMINO-3,4-DIOXO-1-PHENYLBUTAN-2-YL)-2-CHLORO-6-FLUORO-3-METHOXYBENZAMIDE] | < 3000 | < 3000 | < 3000 | 10 to 25 | < 10
12 | NC(=O)C(=O)[C@H](Cc1ccccc1)NC(=O)c1c(F)cccc1I [Compound 27, (S)—N-(4-AMINO-3,4-DIOXO-1-PHENYLBUTAN-2-YL)-2-FLUORO-6-IODOBENZAMIDE] | < 3000 | < 3000 | < 3000 | 10 to 25 | < 10
13 | O=CC(Cc1ccccc1)NC(=O)c1c(C(F)(F)F)ccc(Cl)c1F (stereo not drawn) [Compound 38, 3-CHLORO-2-FLUORO-N-(1-OXO-3-PHENYLPROPAN-2-YL)-6-(TRIFLUOROMETHYL)BENZAMIDE] | < 3000 | < 3000 | < 3000 | < 10 | 10 to 25
14 | NC(=O)C(=O)C(Cc1ccccc1)NC(=O)c1cccc2c1Oc1ccccc1O2 (stereo not drawn) [Compound 7, N-(4-AMINO-3,4-DIOXO-1-PHENYLBUTAN-2-YL)DIBENZO[b,e][1,4]DIOXINE-1-CARBOXAMIDE] | < 3000 | < 3000 | < 3000 | 10 to 25 | > 25
15 | Cc1ccc(F)c(C(=O)NC(C=O)Cc2ccccc2)c1Cl (stereo not drawn) [Compound 42, 2-CHLORO-6-FLUORO-3-METHYL-N-(1-OXO-3-PHENYLPROPAN-2-YL)BENZAMIDE] | < 3000 | < 3000 | < 3000 | 10 to 25 | < 10
